Assays:
EP4 = EP4 (Homo sapiens (Human), UniProt P35408); assay: hEP4 cAMP assay (BT549 breast cancer cells, HTRF cAMP); format: cell-based; conditions: antagonistic activity; mean values where measured multiple times
Protocol: Plate is pre-incubated 45 minutes at room temperature. Subsequently, 2.5 microliters of PGE2 (final conc. 6 nM) are transferred into the assay plate. Plate is incubated 30 minutes at room temperature.

EP2 = EP2 (Homo sapiens (Human), UniProt P43116);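 also: antagonism of PGE2-stimulated cAMP accumulation in SF295 human glioblastoma cells with endogenous EP2, cAMP read by HTRF, expressed relative to DMSO control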
EP2, sequence (P43116 whole entry): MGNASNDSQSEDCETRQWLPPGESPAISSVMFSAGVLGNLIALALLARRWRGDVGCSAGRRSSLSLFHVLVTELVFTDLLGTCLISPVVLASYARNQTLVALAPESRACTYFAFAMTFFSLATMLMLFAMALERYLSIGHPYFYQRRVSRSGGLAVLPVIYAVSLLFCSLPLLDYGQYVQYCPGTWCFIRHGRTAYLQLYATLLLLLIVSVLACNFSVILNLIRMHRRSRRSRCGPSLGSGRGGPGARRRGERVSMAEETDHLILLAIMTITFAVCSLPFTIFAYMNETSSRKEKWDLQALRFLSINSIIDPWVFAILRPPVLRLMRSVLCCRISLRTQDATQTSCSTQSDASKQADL

EP4, sequence (P35408 whole entry): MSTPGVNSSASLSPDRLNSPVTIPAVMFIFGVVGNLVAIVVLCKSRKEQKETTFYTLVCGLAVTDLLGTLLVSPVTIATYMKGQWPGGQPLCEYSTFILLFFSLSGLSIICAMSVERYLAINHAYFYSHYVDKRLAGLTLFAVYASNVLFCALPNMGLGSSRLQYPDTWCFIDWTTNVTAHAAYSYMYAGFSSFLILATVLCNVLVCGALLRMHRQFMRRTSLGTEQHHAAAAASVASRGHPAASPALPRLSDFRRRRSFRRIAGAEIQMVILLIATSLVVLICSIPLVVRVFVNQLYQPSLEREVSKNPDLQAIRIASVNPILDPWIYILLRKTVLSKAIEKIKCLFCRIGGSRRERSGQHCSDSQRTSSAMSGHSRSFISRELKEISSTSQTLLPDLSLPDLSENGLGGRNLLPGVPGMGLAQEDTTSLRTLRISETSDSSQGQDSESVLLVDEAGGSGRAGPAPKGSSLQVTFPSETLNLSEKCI

Row | Compound | IC50 (EP4) | IC50 (EP2)
1 | COc1ccc(F)c2cc(C)n(CCNc3cc(-c4ccc(C(=O)O)c(CC(C)C)c4)ncn3)c12 [compound 539] | 948 nM | 160 nM
2 | COc1ccc(F)c2c1cc(C)n2CCNc1cc(-c2cc(C(F)(F)F)c(C(=O)O)s2)nc(C)n1 [compound 540] | 23 nM | 18 nM
3 | COc1cc(F)cc2c1cc(C)n2CCNc1cc(-c2cc(C(F)(F)F)c(C(=O)O)s2)nc(C)n1 [compound 541] | 25 nM | 19 nM
4 | CCSc1cc(-c2cc(NCCn3c(C)cc4c(OC)c(F)cc(Cl)c43)ncn2)ccc1C(=O)O [compound 542] | 522 nM | 44 nM
5 | CCOc1cc(-c2cc(NCCn3c(C)cc4c(C(F)(F)F)ccc(F)c43)ncn2)ccc1C(=O)O [compound 543] | 250 nM | 990 nM
6 | Cc1cc(F)cc2c1cc(C)n2CCNc1cc(-c2ccc(-c3csc(C(=O)O)n3)cc2)ncn1 [compound 544] | 178 nM | 47 nM
7 | Cc1cc(F)cc2c1cc(C)n2CCNc1cc(-c2ccc(-c3nc(C(=O)O)cs3)cc2)ncn1 [compound 545] | 119 nM | 29 nM
8 | Cc1ccc(F)c2c1cc(C)n2CCNc1cc(-c2ccc(-c3nc(C(=O)O)cs3)cc2)ncn1 [compound 546] | 57 nM | 16 nM
9 | Cc1cc(F)cc2c1cc(C)n2CCNc1cc(-c2ccc(-c3cncn3C)cc2)ncn1 [compound 547] | 232 nM | 63 nM
10 | Cc1nc(-c2ccc(-c3cc(NCCn4c(C)cc5c(C)cc(F)cc54)ncn3)cc2)c[nH]1 [compound 548] | 61 nM | 6 nM
11 | COc1ccc(F)c2c1cc(C)n2CCNc1cc(-c2ccc(C(=O)NCCN(C)C)cc2)ncn1 [compound 549] | 865 nM | 131 nM
12 | Cc1cc2c(Cl)cc(Cl)cc2n1CCNc1cc(-c2ccc(-c3csc(C(=O)O)n3)cc2)ncn1 [compound 550] | 573 nM | 33 nM
13 | Cc1cc2c(Cl)cc(Cl)cc2n1CCNc1cc(-c2ccc(-c3nc(C(=O)O)cs3)cc2)ncn1 [compound 551] | 339 nM | 5 nM
14 | Cc1cc(F)cc2c1cc(C)n2CCNc1cc(-c2ccc(-c3cnc(N)o3)cc2)ncn1 [compound 552] | 118 nM | 26 nM
15 | Cc1nnc(-c2ccc(-c3cc(NCCn4c(C)cc5c(C)ccc(F)c54)ncn3)cc2)o1 [compound 553] | 192 nM | 102 nM
16 | CCNC(=O)Nc1ccc(-c2cc(NCCn3c(C)cc4c(OC)ccc(Cl)c43)ncn2)cc1OC [compound 554] | 65 nM | 56 nM
17 | CCNC(=O)Nc1ccc(-c2cc(NCCn3c(C)cc4c(OC)ccc(F)c43)ncn2)cc1OC [compound 555, 1-Ethyl-3-(4-{6-[2-(7-fluoro-4-methoxy-2-methyl-indol-1-yl)-ethylamino]-pyrimidin-4-yl}-2-methoxy-phenyl)-urea] | 28 nM | 23 nM
18 | COc1ccc(F)c2c1cc(C)n2CCNc1cc(-c2cccc(-n3cccn3)c2)ncn1 [compound 556] | 418 nM | 54 nM
19 | COc1cccc2c1cc(C)n2CCNc1cc(-c2ccc(-c3nc(C(=O)O)cs3)cc2)ncn1 [compound 557] | 78 nM | 5 nM
20 | COc1cc(F)cc2c1cc(C)n2CCNc1cc(-c2ccc(-c3ccon3)cc2)ncn1 [compound 558] | 111 nM | 16 nM
21 | Cc1ccc(F)c2c1cc(C)n2CCNc1cc(-c2ccc(C(=O)O)c(NCC(F)(F)F)c2)ncn1 [compound 560, 4-{6-[2-(7-Fluoro-2,4-dimethyl-indol-1-yl)-ethylamino]-pyrimidin-4-yl}-2-(2,2,2-trifluoro-ethylamino)-benzoic acid] | 107 nM | 7 nM
22 | Cc1ccc(F)c2c1cc(C)n2CCNc1cc(-c2ccc(-c3ccccn3)cc2)ncn1 [compound 561] | 374 nM | 102 nM
23 | CCOc1cc(-c2cc(NCCn3c(C)cc4c(C)ccc(F)c43)ncn2)ccc1CNCCOC [compound 562] | 547 nM | 359 nM

Source: patent US12011444B2, “N-substituted indole derivatives as PGE2 receptor modulators” (Idorsia Pharmaceuticals Ltd, priority 2015, dated 2024)
